This is an account of results in patent US20070293422A1, “Beta-Amyloid Inhibitors and Use Thereof” (priority 2003, published 2007).

Series [1] has as its target T1, Aβ1-42 (SEQ ID NO: 11) (Homo sapiens, UniProt P05067).
T1 construct: purchased BACHEM H-1368.1000
In words: Thioflavine T fluorescence assay of Aβ1-42 amyloid fibril formation (fibrillogenesis assay). In kind it is biochemical. The procedure:
The percentage of formed fibrils after 2 days incubation with 110 μM of Aβ1-42 (SEQ ID NO: 11) at 37° C. is represented versus the concentration of the peptides of the invention (in μM). 100% of formed fibrils correspond to the fibrils formed in presence of Aβ1-42 alone. Triangles represent data for pAntp (SEQ ID NO: 4) and squares represent data for pAntp-BSB1 (SEQ ID NO: 6). The percentage of formed fibrils for peptides of the invention is compared to that obtained for a known beta-sheet breaker, BSB1 of SEQ ID NO: 5 (Lozenges). Data are the result of three independent experiments in duplicate.
Amyloid formation can be quantitatively evaluated by the fluorescence emission of thioflavine T (ThT) bound to amyloid fibrils, as reported by Levine et al., 1993 and also Soto et al., 1995.
In this assay, peptides of the invention were solubilized in water at different concentration in small Eppendorff tubes and lyophilized.
Ab1-42 (a synthetic peptide with the same sequence as the one deposited in the amyloid plaques in Alzheimer's brain, SEQ ID NO: 11) was solubilized at the concentration of 1 mg/ml in 2 mM NaOH. Aliquots were lyophilized (storage −80° C.). Several aliquots of Ab1-42 at a concentration of 0.5 mg/ml ([…]) were prepared in 0.1M Tris, pH 7.4 and incubated for 2 or 5 days at 37° C. in the absence or in the presence of different concentrations of the pre-lyophilized peptides of the invention (ranged from […]). Thioflavin T was purchased from Sigma (T-3516). For example, 120 μg of Ab1-42 and mixed to 1 μl of DMSO and 239 μl of 0.1M Tris, pH 7.4. From this solution, 120 μl are incubated 5 days at 37° C. and 120 μl are used to solubilize the peptide of the invention at the desired concentration and incubated 5 days at 37° C.
At the end of the incubation period, 50 mM Glycine, pH 9.2 and 2 μM ThT are added to the incubated mixture described above in a final volume of […] (850 μl of pure water, 200 μl of 50 mM Glycine, pH 9.2 and 40 μl of Thioflavin T (1 mM in pure water) are added to 60 μl of sample.
Fluorescence is measured at excitation 435 nm and emission 485 nm in a Perkin Elmer, model LS50B fluorescence spectrometer. Measurements are carried out after the signal is stable for at least 1-2 min. The initial value of fluorescence represents the fluorescence obtained with Ab1-42 peptide alone (highest concentration of fibrils) representing 100% of formed fibrils.
The percentage of inhibition of Ab1-42 fibril formation induced by compounds of the invention can be calculated using an analytical method such as described in Soto et al., 1998.

Series [2] concerns PC12 cells. In kind it is cell-based. The procedure: Amyloid fibrils are cytotoxic, inducing cell death by apoptosis (Levine et al., 1993). The ability of the compounds of the invention in preventing the amyloid formation can be evaluated by measuring the decrease in the amyloid fibrils cytotoxicity in a cell assay. Toxicity was measured by comparing the effects of samples of Ab1-42 (SEQ ID NO: 11) alone or of mixtures of Ab1-42 combined with the peptides of the invention, on the reduction of the redox active dye, 3-(4,5-dimethylthiazol-2-yl)-2,5-diphenyltetrazolium bromide (MTT) by PC12 cells. […] The cells are incubated for 24 h and thereafter the cellular viability was evaluated using the MTT kit (Kit I (MTT), No. 1 465 007 Roche, Mannheim, Germany). Levels of reduced MTT are determined by measuring the difference in absorbance at 595 and 650 nm using a microplate reader and the extend of cellular viability is then deduced Maximum fibril inhibition is obtained at a peptide concentration of 8 mM for the reference compound of SEQ ID NO: 5 in the fibrillogenesis assay described above. […] Cellular viability is then measured for peptides of the invention by adding the fibrillogenesis assay mixtures containing 1 mM of peptide of the invention (concentration where maximum fibril inhibition is obtained for peptides of the invention) to the PC12 cells after a 20-fold dilution. […]

T1 sequence (P05067 672-713): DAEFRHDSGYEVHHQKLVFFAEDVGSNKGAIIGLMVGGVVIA

`CC[C@H](C)[C@H](NC(=O)[C@H](CCCCN)NC(=O)[C@@H](NC(=O)[C@H](CCC(N)=O)NC(=O)[C@@H](N)CCCNC(=N)N)[C@@H](C)CC)C(=O)N[C@@H](Cc1c[nH]c2ccccc12)C(=O)N[C@@H](Cc1ccccc1)C(=O)N[C@@H](CCC(N)=O)C(=O)N[C@@H](CC(N)=O)C(=O)N[C@@H](CCCNC(=N)N)C(=O)N[C@@H](CCCNC(=N)N)C(=O)N[C@@H](CCSC)C(=O)N[C@@H](CCCCN)C(=O)N[C@@H](Cc1c[nH]c2ccccc12)C(=O)N[C@@H](CCCCN)C(=O)N[C@@H](CCCCN)C(=O)N[C@@H](CC(C)C)C(=O)N1CCC[C@H]1C(=O)N[C@@H](Cc1ccccc1)C(=O)N[C@@H](Cc1ccccc1)C(=O)N[C@@H](CC(=O)O)C(N)=O` [SEQ ID NO: 6]: the inhibition in series [1] (500 μM peptide, Ab1-42 in 0.1M Tris pH 7.4, 37° C., read-out: % Inhibition of amyloid fibrils) is 57%. In series [1] (2 days incubation with 110 μM Aβ1-42 at 37° C.), the “inhibition of the fibrillogenesis process (FIG. 1)” value was “high degree of inhibition”. Besides, the IC50 in series [1] (ThT fluorescence, Ab1-42 0.5 mg/ml, 37° C., read-out: IC50 (inhibition of Ab1-42 fibril formation)) is ~98 µM. The “inhibiting effect on beta-amyloid cellular toxicity compared with BSB1” value in series [2] (PC12 cells, MTT) was “higher inhibiting effect on the beta-amyloid cellular toxicity than the beta-sheet breaker itself”. Also, the “% cell viability” value in series [2] (rat, 24 h, 50 µM) was 166%.

As for “SEQ ID NO: 5: known beta-sheet breaker BSB1 (WO 01/34631), reference peptide (Ac-LPFFD-NH2) [reference compound]”, in series [1] (500 μM peptide, Ab1-42 0.5 mg/ml in 0.1M Tris pH 7.4, 37° C.), the “% Inhibition of amyloid fibrils” value is 15%. Further, the “peptide concentration above which the % of fibrils reaches a plateau” value in series [1] (FIG. 1, 110 μM Aβ1-42, 37° C.) is listed as “does not reach a plateau limit”. Besides, in series [1] (fibrillogenesis assay), the “peptide concentration at which maximum fibril inhibition is obtained” value was 8 mM.
